In US5952307A, “Basic α-aminoalkylphosphonate derivatives” (priority 1997, dated 1999):

Assays:
human thrombin = biological target: T1, human thrombin (Homo sapiens, UniProt P00734); assay type: biochemical; settings: Table II; 0.07 μM thrombin, 0.25-42 μM inhibitor, 80 mM Hepes pH 7.5, 428 mM NaCl, 8% DMSO, 25° C.; NI = no inhibition
T1 construct: bovine trypsin, human thrombin
Summary of the method: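 Irreversible inactivation followed by incubation method at 25 °C: 0.07 μM thrombin with 0.25–42 μM inhibitor in 80 mM Hepes pH 7.5, 428 mM NaCl, 8% DMSO. Residual activity of withdrawn aliquots measured with thioester or 4-nitroanilide substrates; kobs from pseudo-first-order fits.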

factor Xa = biological target: T2, factor Xa (Homo sapiens, UniProt P00742); assay: Inactivation rate of factor Xa, incubation method; assay type: biochemical; settings: Table II; 0.42 μM factor Xa, 66 μM inhibitor, 80 mM Hepes pH 7.5, 428 mM NaCl, 8% DMSO, 25° C.
T2 construct: human thrombin, factor Xa, plasmin
Protocol: Inactivation rates of serine proteases by aryl diesters of peptidyl derivatives of α-aminoalkylphosphonates were measured by the incubation method. An aliquot of inhibitor (25 or 50 μl) in Me2 SO was added to a buffered enzyme solution (0.01-2.3 μM) to initiate the inactivation. Aliquots (50 μl) were withdrawn at various intervals and the residual enzymatic activity was measured. Me2 SO concentration in the reaction mixture was 8-12% (v/v). A 0.1 M HEPES, 0.01 M CaCl2, pH 7.5 buffer was utilized for trypsin and trypsin-like enzymes. A 0.1 M HEPES, 0.5 M NaCl, pH 7.5, was utilized for the other serine proteases. Peptide thioesters or peptide nitroanilides with the appropriate sequences were used as substrates for various serine proteases. All peptide thioesters hydrolysis rates were measured with the assay mixture containing 4,4'-dithiodipyridine {ε324 =19800 M^-1 cm^-1; Grasetti & Murray, Arch. Biochem. Biophys. 1967, 119, 41-48}. Peptide 4-nitroanilide hydrolysis was measured at 410 nm {ε410 =8800 M^-1 cm^-1; Erlanger et al., Arch. Biochem. Biophys. 1961, 95, 271-278}. First order inactivation rate constants (Kobs) were obtained from plots of In vt /vo vs time, and the correlation coefficients were greater then 0.98.
^a Enzyme was incubated with the inhibitor in 250 μL of the proper
NaCl, 0.8 mM Mes, 9% glycerol and 8% DMSO; 0.42 μM factor Xa, 66 μM
inhibitor in an 80 mM Hepes, pH 7.5 buffer containing 428 mM NaCl and 8%
DMSO. Aliquots of 25 μL were withdrawn at various intervals and the
residual enzymatic activity was measured as described in experimental
section. The kobs values were calculated from pseudofirst-order

bovine trypsin = biological target: T3, bovine trypsin (Bos taurus, UniProt P00760); assay: Inactivation rate of bovine trypsin, incubation method; assay type: biochemical; settings: Table II; 0.13 μM trypsin, 0.25-42 μM inhibitor, 80 mM Hepes pH 7.5, 1 mM CaCl2, 8% DMSO, 25° C.; NI = no inhibition
T3 sequence (P00760 24-246): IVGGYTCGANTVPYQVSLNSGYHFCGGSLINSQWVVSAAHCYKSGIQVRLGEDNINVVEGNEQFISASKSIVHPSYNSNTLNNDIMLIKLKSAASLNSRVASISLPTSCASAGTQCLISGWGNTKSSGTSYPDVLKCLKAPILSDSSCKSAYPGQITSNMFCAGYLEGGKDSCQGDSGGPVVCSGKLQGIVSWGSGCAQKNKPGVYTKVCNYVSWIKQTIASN
Summary of the method: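 Incubation method: trypsin pre-incubated with inhibitor (0.25-42 μM) at 25° C in 80 mM Hepes, 1 mM CaCl2, pH 7.5, 8% DMSO; aliquots withdrawn over time for residual activity on Z-Arg-SBzl thioester with DTNB or 4,4'-dithiodipyridine. Pseudo-first-order kobs from ln vt/vo versus time.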

[1] = Hydrolysis (stability) in human plasma; assay type: in vitro ADME
Text: Furthermore, they show excellent stability in human plasma. For example Suc-Val-Pro-Phe^P (OPh)2 has a hydrolysis half-time in human plasma of about 20 hrs. […] Thus they can be used under a variety of conditions. Phosphonates have the additional advantage of being very stable in plasma and will have a high effectiveness in vivo due to their long lifetimes.

T2 sequence (P00742 235-488 limits assumed): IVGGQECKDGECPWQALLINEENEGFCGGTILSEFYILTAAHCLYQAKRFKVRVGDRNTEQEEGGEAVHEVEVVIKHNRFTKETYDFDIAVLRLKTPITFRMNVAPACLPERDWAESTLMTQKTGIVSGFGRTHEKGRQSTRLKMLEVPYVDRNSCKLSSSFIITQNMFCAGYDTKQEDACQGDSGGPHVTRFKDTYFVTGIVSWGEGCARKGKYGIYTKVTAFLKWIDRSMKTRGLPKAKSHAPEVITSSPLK
T2 sequence (P00742 41-179 partner limits assumed): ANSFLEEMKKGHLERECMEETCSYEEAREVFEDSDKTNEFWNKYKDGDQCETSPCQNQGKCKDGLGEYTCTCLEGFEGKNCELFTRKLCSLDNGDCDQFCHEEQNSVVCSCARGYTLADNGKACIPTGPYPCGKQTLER

**Q.** Which “kobs /[I] human thrombin” value (human thrombin) does the source give for `CC(C)CC(NC(=O)OC(C)(C)C)C(=O)NCC(=O)NC(c1ccc(C(=N)N)cc1)P(=O)(Oc1ccccc1)Oc1ccccc1` (mixture of isomers) [Boc--D--Leu--Gly-(4-AmPhGly)^P (OPh)2] here?
**A.** 1,187 ± 76 M^-1 s^-1

**Q.** And the “kobs /[I] factor Xa” value (factor Xa)?
**A.** 10 ± 0.4 M⁻¹ s⁻¹

**Q.** What about the “kobs /[I] bovine trypsin” value (bovine trypsin) of the same molecule?
**A.** 2,960 ± 300 M^-1 s^-1

**Q.** For `CC(C)(C)OC(=O)NC(Cc1ccccc1)C(=O)NCC(=O)NC(c1ccc(C(=N)N)cc1)P(=O)(Oc1ccccc1)Oc1ccccc1` (mixture of isomers) [Boc--D--Phe--Gly-(4-AmPhGly)^P (OPh)2], which “kobs /[I] human thrombin” value (human thrombin) is on record?
**A.** 2,225 ± 106 M^-1 s^-1

**Q.** What about the “kobs /[I] factor Xa” value (factor Xa) of the same molecule?
**A.** 2.8 ± 0 M⁻¹ s⁻¹

**Q.** And the “kobs /[I] bovine trypsin” value (bovine trypsin)?
**A.** 6,620 ± 835 M^-1 s^-1

**Q.** What does the source list for `CC(C)CC(NC(=O)C(Cc1ccccc1)NC(=O)OC(C)(C)C)C(=O)NC(c1ccc(C(=N)N)cc1)P(=O)(Oc1ccccc1)Oc1ccccc1` (mixture of isomers) [Boc--D--Phe--Leu-(4-AmPhGly)^P (OPh)2]?
**A.** kobs /[I] human thrombin (human thrombin): 921 ± 44 M⁻¹ s⁻¹; kobs /[I] factor Xa (factor Xa): 1.4 ± 0.4 M⁻¹ s⁻¹; kobs /[I] bovine trypsin (bovine trypsin): 24 ± 2 M⁻¹ s⁻¹

**Q.** What does the source list for `CC(C)CC(NC(=O)OC(C)(C)C)C(=O)NC(CC(=O)OC(C)(C)C)C(=O)N1CCCC1C(=O)NC(c1ccc(C(=N)N)cc1)P(=O)(Oc1ccccc1)Oc1ccccc1` (mixture of isomers) [Boc--Leu--Asp(O-t-Bu)--Pro-(4-AmPhGly)^P (OPh)2]?
**A.** kobs /[I] human thrombin (human thrombin): 502 ± 21 M⁻¹ s⁻¹; kobs /[I] factor Xa (factor Xa): 8 ± 1 M⁻¹ s⁻¹; kobs /[I] bovine trypsin (bovine trypsin): 670 ± 53 M⁻¹ s⁻¹

**Q.** With `CC(C)(C)OC(=O)NC(CO)C(=O)NC(c1ccc(C(=N)N)cc1)P(=O)(Oc1ccccc1)Oc1ccccc1` (mixture of isomers) [Boc--Ser-(4-AmPhGly)^P (OPh)2] as the molecule, how does the “kobs /[I] human thrombin” value (human thrombin) read?
**A.** 31 ± 2 M⁻¹ s⁻¹

**Q.** And the “kobs /[I] factor Xa” value (factor Xa)?
**A.** 3.5 ± 0.4 M⁻¹ s⁻¹

**Q.** What about the “kobs /[I] bovine trypsin” value (bovine trypsin) of the same molecule?
**A.** 20 ± 1 M⁻¹ s⁻¹

**Q.** For `N=C(N)c1ccc(C(NC(=O)CNC(=O)C(CCC(=O)O)NC(=O)OCc2ccccc2)P(=O)(Oc2ccccc2)Oc2ccccc2)cc1` (mixture of isomers) [Cbz--Glu--Gly-(4-AmPhGly)^P (OPh)2], which “kobs /[I] human thrombin” value (human thrombin) is on record?
**A.** 46 ± 5 M⁻¹ s⁻¹

**Q.** And the “kobs /[I] factor Xa” value (factor Xa)?
**A.** 1.4 ± 0.1 M⁻¹ s⁻¹

**Q.** What about the “kobs /[I] bovine trypsin” value (bovine trypsin) of the same molecule?
**A.** 70 ± 5 M⁻¹ s⁻¹

**Q.** For `CC(C)CC(N)C(=O)NC(CC(=O)O)C(=O)N1CCCC1C(=O)NC(c1ccc(C(=N)N)cc1)P(=O)(Oc1ccccc1)Oc1ccccc1` (mixture of isomers) [Leu--Asp--Pro-(4-AmPhGly)^P (OPh)2], which “kobs /[I] human thrombin” value (human thrombin) is on record?
**A.** 65 ± 1 M⁻¹ s⁻¹

**Q.** What about the “kobs /[I] factor Xa” value (factor Xa) of the same molecule?
**A.** 1.3 ± 0.2 M⁻¹ s⁻¹

**Q.** What about the “kobs /[I] bovine trypsin” value (bovine trypsin) of the same molecule?
**A.** 204 ± 19 M⁻¹ s⁻¹

**Q.** With `CC(C)[C@H](NC(=O)CCC(=O)O)C(=O)N1CCC[C@H]1C(=O)NC(Cc1ccccc1)P(=O)(Oc1ccccc1)Oc1ccccc1` (stereo partly drawn) [Suc-Val-Pro-Phe^P (OPh)2] as the molecule, how does the “hydrolysis half-time in human plasma” value [1] read?
**A.** about 20 hrs
